Measurements published in patent publication US20250281498A1, “FUSED AMINO PYRIMIDINE COMPOUNDS FOR TREATMENT OF SYNUCLEINOPATHIES AND TDP-43 PROTEINOPATHIES” (Ovid Therapeutics Inc., priority 2024, published 2025).

Columns and labels:
[1] = test system: panel of 144 protein kinases; assay: protein kinase panel (SelectScreen; Thermofisher); type: biochemical; conditions: panel incl. protein kinase C isoforms, OSR1, SPAK (STK39), WNK
Experimental: Aliquots of HEK-293 cells expressing KCC2 were exposed to 30 μM SSA, heated from 37-55° C. The remaining level of soluble native KCC2 at each temperature was measured by immunoblotting and normalized to the level seen at 37° C. which was given a value of 1. […] This panel included protein kinase C isoforms, OSR1, SPAK (STK39) and with-no-lysine kinases (WNK), all of which phosphorylate KCC2 on multiple residues to indirectly modify its activity (Kahle et al., 2013, supra; Smalley et al., 2020, supra).

KCC2-S940A = target: T1, KCC2-S940A (Homo sapiens, UniProt Q9H2X9, S963A); assay: TI+ flux assay, HEK-293 cells expressing KCC2-S940A; type: cell-based
T1 construct: expressed in transfected cells; host or cells: HEK-293
T1 sequence (Q9H2X9 1-1116 isoform Q9H2X9-2 S940A): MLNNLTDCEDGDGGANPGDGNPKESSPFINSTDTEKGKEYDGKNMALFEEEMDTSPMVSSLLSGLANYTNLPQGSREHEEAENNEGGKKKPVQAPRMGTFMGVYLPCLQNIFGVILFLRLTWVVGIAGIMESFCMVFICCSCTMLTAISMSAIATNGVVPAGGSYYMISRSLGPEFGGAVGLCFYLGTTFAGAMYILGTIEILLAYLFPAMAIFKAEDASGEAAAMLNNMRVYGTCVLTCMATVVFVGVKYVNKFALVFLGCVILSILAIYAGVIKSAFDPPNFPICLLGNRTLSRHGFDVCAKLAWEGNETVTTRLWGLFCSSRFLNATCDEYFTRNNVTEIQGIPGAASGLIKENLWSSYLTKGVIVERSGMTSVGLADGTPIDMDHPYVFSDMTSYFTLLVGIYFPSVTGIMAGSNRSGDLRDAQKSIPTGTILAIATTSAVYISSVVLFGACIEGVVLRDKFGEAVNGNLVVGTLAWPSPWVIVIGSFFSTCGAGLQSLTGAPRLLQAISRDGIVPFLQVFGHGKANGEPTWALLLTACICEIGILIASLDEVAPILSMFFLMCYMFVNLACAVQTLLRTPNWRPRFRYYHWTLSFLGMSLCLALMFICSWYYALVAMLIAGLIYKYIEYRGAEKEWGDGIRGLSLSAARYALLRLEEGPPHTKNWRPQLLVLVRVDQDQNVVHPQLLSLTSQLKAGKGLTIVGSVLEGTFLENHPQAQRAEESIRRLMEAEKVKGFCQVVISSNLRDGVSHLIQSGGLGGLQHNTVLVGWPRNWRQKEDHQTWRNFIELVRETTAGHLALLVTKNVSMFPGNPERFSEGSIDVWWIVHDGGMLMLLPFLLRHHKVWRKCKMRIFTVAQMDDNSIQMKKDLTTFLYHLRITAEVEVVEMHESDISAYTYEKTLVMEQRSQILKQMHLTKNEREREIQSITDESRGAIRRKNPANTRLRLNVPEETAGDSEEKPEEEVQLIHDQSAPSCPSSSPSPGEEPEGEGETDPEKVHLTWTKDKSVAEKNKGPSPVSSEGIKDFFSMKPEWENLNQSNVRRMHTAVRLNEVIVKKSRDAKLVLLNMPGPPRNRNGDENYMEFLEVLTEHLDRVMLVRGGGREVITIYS
Experimental: FLIPR TI Flux assay. HEK-293 cells were washed with HBSS, and then incubated with loading buffer containing TI sensitive fluorescent dye (https://www.moleculardevices.com), 20 μM bumetanide 20 μM ouabain and 2.5 mM probenecid for 1 h at room temperature (RT) under control conditions or with drugs in the dark using a FlexStation 3 microplate reader (Molecular Devices) and imaged […] for 30 min. Stimulus buffer was added containing 5 mM K^+/0.5 mM Tl^+ and cells were imaged every 1.5 over a 190 second time course The initial rate Tl^+ uptake (Relative Fluorescence Units (RFU) per second) was determined following addition of the stimulus buffer as outlined previously (Conway et al., 2017, supra) (Lee et al., 2022, supra).
Several studies have shown that the activity and plasma membrane accumulation of KCC2 is potentiated via phosphorylation of S940, a process mediated by the activity of protein kinase C and protein phosphatase 1 (Lee et al., 2011, supra; Lee et al., J Biol Chem 282, 29777-29784 (2007); Moore et al., Proc. Natl. Acad. Sci. U.S.A. 115, 10166-10171 (2018); Moore et al., Trends Neurosci. 40, 555-571 (2017); Silayeva et al., Proc. Natl. Acad. Sci. U.S.A. 112, 3523-3528 (2015)). […] Compared to KCC2, effects on KCC3, KCC4, and NKCC1 were only seen at concentrations more than 35-fold that of KCC2 (>100 μM) (FIG. 1G).

SMILES: C[C@@H]1CN(c2nc3c(c(Nc4ccc(C5CCCCC5)cc4)n2)COC3)CCO1 [Compound A, (R)—N-(4-cyclohexylphenyl)-2-(2-methylmorpholino)-5,7-dihydrofuro[3,4-d]pyrimidin-4-amine]
- activity of a panel of 144 protein kinases [1]: did not modify the activity
- activity of KCC2-S940A construct (KCC2-S940A): increased the activity
